{"source": "patent US4994376A", "about": "“Detection of bacteroides gingivalis” (priority 1987, dated 1991)", "type_in_all_cases": "biochemical", "key": {"Bacteroides gingivalis": {"system": "Bacteroides gingivalis", "conditions": "β-naphthylamine liberated after 60 minutes, 37° C.", "summary_of_the_method": "(§1)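 Hydrolysis of N-CBz-glycyl-glycyl-L-arginine-β-naphthylamide over 1 h at 37 °C, then colour developed with Fast Garnet GBC (0.5 mg/ml) in 1M acetate pH 4.2 with 10% Tween 20 for 15 min at room temperature. Absorbance read at 525 nm against an enzyme-free control; activity given as nmol β-naphthylamine released in 60 min.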"}, "B. levii": {"system": "B. levii", "conditions": "β-naphthylamine liberated after 60 minutes, 37° C.", "summary_of_the_method": "as §1"}, "B. loescheii": {"system": "B. loescheii", "conditions": "β-naphthylamine liberated after 60 minutes, 37° C.", "summary_of_the_method": "as §1"}, "B. intermedius": {"system": "B. intermedius", "assay": "Aminopeptidase activity on β-naphthylamide substrates", "conditions": "strain ATCC 25611; β-naphthylamine liberated after 60 minutes, 37° C.", "summary_of_the_method": "as §1"}, "B. corporis": {"system": "B. corporis", "assay": "Aminopeptidase activity on β-naphthylamide substrates", "conditions": "strain ATCC 33547; β-naphthylamine liberated after 60 minutes, 37° C.", "summary_of_the_method": "as §1"}, "B. melaninogenicus": {"system": "B. melaninogenicus", "assay": "Aminopeptidase activity on β-naphthylamide substrates", "conditions": "strain ATCC 25845; β-naphthylamine liberated after 60 minutes, 37° C.", "summary_of_the_method": "as §1"}, "B. denticola": {"system": "B. denticola", "assay": "Aminopeptidase activity on β-naphthylamide substrates", "conditions": "strain ATCC 33185; β-naphthylamine liberated after 60 minutes, 37° C.", "summary_of_the_method": "as §1"}, "C. sputigena": {"system": "C. sputigena", "assay": "Aminopeptidase activity on β-naphthylamide substrates", "conditions": "strain ATCC 33123; β-naphthylamine liberated after 60 minutes, 37° C.", "summary_of_the_method": "as §1"}, "Lactobacillus casei": {"system": "Lactobacillus casei", "assay": "Aminopeptidase activity on β-naphthylamide substrates", "conditions": "β-naphthylamine liberated after 60 minutes, 37° C.", "summary_of_the_method": "(§2)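 Enzyme plus N-CBz-glycyl-glycyl-L-arginine-β-naphthylamide incubated 1 h at 37° C. Fast Garnet GBC (0.5 mg/ml) in 1M acetate pH 4.2 with 10% Tween 20 added; stood 15 min at RT. A525 read; activity given as nmol β-naphthylamine liberated in 60 min.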"}, "A. equuli": {"system": "A. equuli", "assay": "Aminopeptidase activity on β-naphthylamide substrates", "conditions": "strain ATCC 19392; β-naphthylamine liberated after 60 minutes, 37° C.", "summary_of_the_method": "as §2"}, "F. periodonticum": {"system": "F. periodonticum", "assay": "Aminopeptidase activity on β-naphthylamide substrates", "conditions": "strain EK1-15; β-naphthylamine liberated after 60 minutes, 37° C.", "summary_of_the_method": "as §2"}, "S. salivarius": {"system": "S. salivarius", "assay": "Aminopeptidase activity on β-naphthylamide substrates", "conditions": "β-naphthylamine liberated after 60 minutes, 37° C.", "summary_of_the_method": "as §2"}, "A. suis": {"system": "A. suis", "assay": "Aminopeptidase activity on β-naphthylamide substrates", "conditions": "strain ATCC 15557; β-naphthylamine liberated after 60 minutes, 37° C.", "summary_of_the_method": "as §2"}, "L. fermentum": {"system": "L. fermentum", "assay": "Aminopeptidase activity on β-naphthylamide substrates", "conditions": "strain ATCC 11581; β-naphthylamine liberated after 60 minutes, 37° C.", "summary_of_the_method": "as §2"}, "Haemophilus aphrophilus": {"system": "Haemophilus aphrophilus", "assay": "Aminopeptidase activity on β-naphthylamide substrates", "conditions": "β-naphthylamine liberated after 60 minutes, 37° C.", "summary_of_the_method": "as §2"}, "V. parvula": {"system": "V. parvula", "conditions": "strain ATCC 10790; β-naphthylamine liberated after 60 minutes, 37° C.", "summary_of_the_method": "as §2"}, "S. sanguis": {"system": "S. sanguis", "conditions": "β-naphthylamine liberated after 60 minutes, 37° C.", "summary_of_the_method": "as §2"}, "Streptococcus mitis": {"system": "Streptococcus mitis", "conditions": "β-naphthylamine liberated after 60 minutes, 37° C.", "summary_of_the_method": "as §2"}, "A. viscosus": {"system": "A. viscosus", "conditions": "β-naphthylamine liberated after 60 minutes, 37° C.", "summary_of_the_method": "as §2"}, "Campylobacter sputorum": {"system": "Campylobacter sputorum", "conditions": "strain Ba1-21; β-naphthylamine liberated after 60 minutes, 37° C.", "summary_of_the_method": "as §2"}, "Eikenella corrodens": {"system": "Eikenella corrodens", "conditions": "strain BP1-6; β-naphthylamine liberated after 60 minutes, 37° C.", "summary_of_the_method": "as §2"}, "\"Anaerobic vibrio\"": {"system": "\"Anaerobic vibrio\"", "conditions": "strain SN2T2; β-naphthylamine liberated after 60 minutes, 37° C.", "summary_of_the_method": "as §2"}, "A. seminis": {"system": "A. seminis", "conditions": "strain ATCC 15768; β-naphthylamine liberated after 60 minutes, 37° C.", "summary_of_the_method": "as §2"}, "[1]": {"system": "Actinobacillus actinomycetemcomitans", "conditions": "β-naphthylamine liberated after 60 minutes, 37° C.", "summary_of_the_method": "as §2"}, "S. mutans": {"system": "S. mutans", "conditions": "strain ATCC 25175; β-naphthylamine liberated after 60 minutes, 37° C.", "summary_of_the_method": "as §2"}, "Actinomyces israeli": {"system": "Actinomyces israeli", "conditions": "β-naphthylamine liberated after 60 minutes, 37° C.", "summary_of_the_method": "as §2"}, "Fusobacterium nucleatum": {"system": "Fusobacterium nucleatum", "conditions": "β-naphthylamine liberated after 60 minutes, 37° C.", "summary_of_the_method": "as §2"}, "Veillonella sp.": {"system": "Veillonella sp.", "conditions": "strain SE1M2; β-naphthylamine liberated after 60 minutes, 37° C.", "summary_of_the_method": "as §2"}}, "note": "Read-outs that look alike come from different tables or passages of the source. Peptide text beside a SMILES is read from it.", "data": [{"smiles": "CC(C)C[C@H](N)C(=O)NCC(=O)O", "note": "[Leu-Gly, Leucyl-glycine] (H-Leu-Gly-OH)", "values": [{"measurement": "Aminopeptidase activity", "setting": "Bacteroides gingivalis; strain 9-14K-1", "result": 6, "unit": "nmol"}, {"measurement": "Aminopeptidase activity", "setting": "Bacteroides gingivalis; strain 11-1-2", "result": 47, "unit": "nmol"}, {"measurement": "Aminopeptidase activity", "setting": "Bacteroides gingivalis; strain 381", "result": 76, "unit": "nmol"}, {"measurement": "Aminopeptidase activity", "setting": "Bacteroides gingivalis; strain 1021", "result": 16, "unit": "nmol"}, {"measurement": "Aminopeptidase activity", "setting": "Bacteroides gingivalis; strain ATCC 33277", "result": 48, "unit": "nmol"}, {"measurement": "Aminopeptidase activity", "setting": "Bacteroides gingivalis; strain FAYE 19m-1", "result": 6, "unit": "nmol"}, {"measurement": "Aminopeptidase activity", "setting": "B. levii; strain 18-1-5", "result": 47, "unit": "nmol"}, {"measurement": "Aminopeptidase activity", "setting": "B. levii; strain 18-1-8", "result": 51, "unit": "nmol"}, {"measurement": "Aminopeptidase activity", "setting": "B. loescheii; strain ATCC 15930", "result": 20, "unit": "nmol"}, {"measurement": "Aminopeptidase activity", "setting": "B. loescheii; strain VPI4196", "result": 58, "unit": "nmol"}, {"measurement": "Aminopeptidase activity", "setting": "B. intermedius", "result": 10, "unit": "nmol"}, {"measurement": "Aminopeptidase activity", "setting": "B. corporis", "result": 67, "unit": "nmol"}, {"measurement": "Aminopeptidase activity", "setting": "B. melaninogenicus", "result": 53, "unit": "nmol"}, {"measurement": "Aminopeptidase activity", "setting": "B. denticola", "result": 42, "unit": "nmol"}, {"measurement": "Aminopeptidase activity", "setting": "C. sputigena", "result": 20, "unit": "nmol"}, {"measurement": "Aminopeptidase activity", "setting": "Lactobacillus casei; strain ATCC 7469", "result": 0, "unit": "nmol"}, {"measurement": "Aminopeptidase activity", "setting": "Lactobacillus casei; strain ATCC 11578", "result": 2, "unit": "nmol"}, {"measurement": "Aminopeptidase activity", "setting": "Lactobacillus casei; strain ATCC 11582", "result": 1, "unit": "nmol"}, {"measurement": "Aminopeptidase activity", "setting": "A. equuli", "result": 0, "unit": "nmol"}, {"measurement": "Aminopeptidase activity", "setting": "F. periodonticum", "result": 0, "unit": "nmol"}, {"measurement": "Aminopeptidase activity", "setting": "S. salivarius; strain ATCC 9759", "result": 0, "unit": "nmol"}, {"measurement": "Aminopeptidase activity", "setting": "S. salivarius; strain ATCC 25975", "result": 0, "unit": "nmol"}, {"measurement": "Aminopeptidase activity", "setting": "A. suis", "result": 0, "unit": "nmol"}, {"measurement": "Aminopeptidase activity", "setting": "L. fermentum", "result": 2, "unit": "nmol"}, {"measurement": "Aminopeptidase activity", "setting": "Haemophilus aphrophilus; strain ATCC 13252", "result": 0, "unit": "nmol"}, {"measurement": "Aminopeptidase activity", "setting": "Haemophilus aphrophilus; strain ATCC 19415", "result": 0, "unit": "nmol"}, {"measurement": "Aminopeptidase activity", "setting": "Haemophilus aphrophilus; strain NCTC 5908", "result": 0, "unit": "nmol"}, {"measurement": "Aminopeptidase activity", "setting": "V. parvula", "result": 0, "unit": "nmol"}, {"measurement": "Aminopeptidase activity", "setting": "S. sanguis; strain ATCC 10556", "result": 0, "unit": "nmol"}, {"measurement": "Aminopeptidase activity", "setting": "S. sanguis; strain ATCC 10557", "result": 0, "unit": "nmol"}, {"measurement": "Aminopeptidase activity", "setting": "Streptococcus mitis; strain ATCC 9815", "result": 0, "unit": "nmol"}, {"measurement": "Aminopeptidase activity", "setting": "Streptococcus mitis; strain ATCC 15909", "result": 0, "unit": "nmol"}, {"measurement": "Aminopeptidase activity", "setting": "Streptococcus mitis; strain ATCC 15911", "result": 124, "unit": "nmol"}, {"measurement": "Aminopeptidase activity", "setting": "Streptococcus mitis; strain ATCC 15912", "result": 0, "unit": "nmol"}, {"measurement": "Aminopeptidase activity", "setting": "A. viscosus; strain ATCC 19246", "result": 0, "unit": "nmol"}, {"measurement": "Aminopeptidase activity", "setting": "A. viscosus; strain T14V", "result": 0, "unit": "nmol"}, {"measurement": "Aminopeptidase activity", "setting": "Campylobacter sputorum", "result": 0, "unit": "nmol"}, {"measurement": "Aminopeptidase activity", "setting": "Eikenella corrodens", "result": 0, "unit": "nmol"}, {"measurement": "Aminopeptidase activity", "setting": "\"Anaerobic vibrio\"", "result": 0, "unit": "nmol"}, {"measurement": "Aminopeptidase activity", "setting": "A. seminis", "result": 0, "unit": "nmol"}, {"measurement": "Aminopeptidase activity", "setting": "[1]; strain 67", "result": 2, "unit": "nmol"}, {"measurement": "Aminopeptidase activity", "setting": "[1]; strain 75", "result": 0, "unit": "nmol"}, {"measurement": "Aminopeptidase activity", "setting": "[1]; strain ATCC 29523", "result": 0, "unit": "nmol"}, {"measurement": "Aminopeptidase activity", "setting": "[1]; strain NCTC 9709", "result": 0, "unit": "nmol"}, {"measurement": "Aminopeptidase activity", "setting": "[1]; strain Y4", "result": 0, "unit": "nmol"}, {"measurement": "Aminopeptidase activity", "setting": "S. mutans", "result": 0, "unit": "nmol"}, {"measurement": "Aminopeptidase activity", "setting": "Actinomyces israeli; strain ATCC 12103", "result": 0, "unit": "nmol"}, {"measurement": "Aminopeptidase activity", "setting": "Actinomyces israeli; strain DK2-3", "result": 0, "unit": "nmol"}, {"measurement": "Aminopeptidase activity", "setting": "Fusobacterium nucleatum; strain 2", "result": 2, "unit": "nmol"}, {"measurement": "Aminopeptidase activity", "setting": "Fusobacterium nucleatum; strain ATCC 25586", "result": 0, "unit": "nmol"}, {"measurement": "Aminopeptidase activity", "setting": "Fusobacterium nucleatum; strain D31A-24", "result": 0, "unit": "nmol"}, {"measurement": "Aminopeptidase activity", "setting": "Veillonella sp.", "result": 0, "unit": "nmol"}]}]}
